{"source": "the OPERA property sets (Mansouri et al. 2018)"}
{"smiles": "Nc1ncc(Cc2ccccc2)c(N)n1", "logP": 1.58}
{"smiles": "COc1ccc(C=CC(=O)O)cc1", "logP": 2.68}
{"smiles": "Oc1cccc2c(O)cccc12", "logP": 1.94}
{"smiles": "NCCN1CCCC1", "logP": 0.08}
{"smiles": "COc1ccc(N(CCCC(=O)O)C(=O)c2ccc(Cl)cc2)cc1", "logP": 2.7}
{"smiles": "N#Cc1ccccc1N", "logP": 1.4}
{"smiles": "COc1ccc(OC)c(CC(C)N)c1", "note": "(centres undefined)", "logP": 1.72}
{"smiles": "Cc1ncc([N+](=O)[O-])n1CCNC(=O)OC(C)C", "logP": 0.88}
{"smiles": "CSCC(=O)C=NO", "logP": 1.21}
{"smiles": "COc1ccc(NC(C)=O)cc1", "logP": 1.03}
{"smiles": "CNC(=O)Oc1cccc(C#N)c1", "logP": 0.97}
{"smiles": "c1ccc(Oc2ccccn2)cc1", "logP": 2.39}
{"smiles": "Cc1cccc2ccccc12", "logP": 3.87}
{"smiles": "COc1cc(CC(C)N)cc(OC)c1Br", "note": "(centres undefined)", "logP": 2.44}
{"smiles": "CC/C(=C(/CC)c1ccc(O)cc1)c1ccc(O)cc1", "logP": 5.07}
{"smiles": "COc1cccc2c1C(=N)c1c(O)c3c(c(O)c1C2=O)CC(O)(C(=O)CO)CC3OC1CC(N2CCOCC2C#N)C(O)C(C)O1", "note": "(centres undefined)", "logP": 1.97}
{"smiles": "CC(=O)c1cn(C)c2ccccc12", "logP": 1.95}
{"smiles": "CC(Cl)(Cl)Cl", "logP": 2.49}
{"smiles": "CCc1ccccc1C", "logP": 3.53}
{"smiles": "c1ccc(-c2ccncc2)cc1", "logP": 2.59}
{"smiles": "CC(N)=S", "logP": -0.26}
{"smiles": "c1ccsc1", "logP": 1.81}
{"smiles": "COc1ccccc1C=C(C(C)=O)C(C)=O", "logP": 1.73}
{"smiles": "O=C(O)C(Cl)(Cl)Cl", "logP": 1.33}
{"smiles": "ClCCOCCCl", "logP": 1.29}
{"smiles": "COC(=O)Nc1cccc(Cl)c1", "logP": 2.58}
{"smiles": "CCCC=O", "logP": 0.88}
{"smiles": "CCC1C2CC3C4N(C)c5ccccc5C45CC(C2C5O)N3C1O", "note": "(centres undefined)", "logP": 1.81}
{"smiles": "CCC(C)c1ccccc1OC(=O)NC", "note": "(centres undefined)", "logP": 2.78}
{"smiles": "OC(CNCC(O)COc1ccccc1)COc1ccccc1", "note": "(centres undefined)", "logP": 2.52}
{"smiles": "COCOC", "logP": 0}
{"smiles": "Nc1ncnc2nn[nH]c12", "logP": -0.96}
{"smiles": "CC(=O)Oc1cccc(Cl)c1", "logP": 2.32}
{"smiles": "C=C(C)Cl", "logP": 2}
{"smiles": "CCN(O)C(N)=O", "logP": -0.1}
{"smiles": "CN(C)C(=O)c1ccccc1O", "logP": 0.44}
{"smiles": "Nc1ccc(F)cc1F", "logP": 1.54}
{"smiles": "FN(F)C(c1ccccc1)(c1ccccc1)c1ccccc1", "logP": 3.73}
{"smiles": "O=C(c1ccccc1)n1c(=O)[nH]cc(F)c1=O", "logP": 0.8}
{"smiles": "OCC(Cl)(Cl)Cl", "logP": 1.42}
{"smiles": "C[C@@H](N)[C@@H](O)c1ccccc1", "logP": 0.67}
{"smiles": "Cc1n[nH]c(C(=O)Nc2ccccc2)c1[N+](=O)[O-]", "logP": 1.81}
{"smiles": "CC1=C(C(=O)Nc2ccccc2)SCCO1", "logP": 2.14}
{"smiles": "CC(=O)OCC1OC(n2ccnc2[N+](=O)[O-])C(OC(C)=O)C(OC(C)=O)C1OC(C)=O", "note": "(centres undefined)", "logP": 0.52}
{"smiles": "COC(=O)CCCCC(C)=O", "logP": 0.55}
{"smiles": "COC1C(OC(C)=O)CC(=O)OC(C)CC=CC=CC(O)C(C)CC(CC=O)C1OC1OC(C)C(OC2CC(C)(O)C(OC(=O)CC(C)C)C(C)O2)C(N(C)C)C1O", "note": "(centres undefined)", "logP": 2.39}
{"smiles": "O=C(O)Cc1ccccc1Oc1ccc(Cl)cc1Cl", "logP": 4.8}
{"smiles": "CC(C)(C)c1cccc(C(C)(C)C)c1O", "logP": 4.92}
{"smiles": "CNc1nc2ccccc2o1", "logP": 1.82}
{"smiles": "COC(=O)Cc1ccccc1", "logP": 1.83}
{"smiles": "COc1cccc(COC(C)=O)c1", "logP": 2.02}
{"smiles": "C[C@@H]1C[C@H]2C3C[C@H](F)C4=CC(=O)C=CC4(C)[C@@]3(F)[C@@H](O)CC2(C)[C@@]1(O)C(=O)COC(=O)C(C)(C)C", "note": "(some centres undefined)", "logP": 3.86}
{"smiles": "CC(C)(c1ccc(O)cc1)c1ccc(O)cc1", "logP": 3.32}
{"smiles": "NC(N)=Nc1ccccc1", "logP": 0.53}
{"smiles": "CCN(CC)CCNC(=O)c1cc(Cl)ccc1OC", "logP": 3.11}
{"smiles": "CN(C)C(=O)Nc1cccc([N+](=O)[O-])c1", "logP": 1.46}
{"smiles": "O=C(O)c1c(F)cccc1Cl", "logP": 2.11}
{"smiles": "Clc1ccc(-c2cc3ccccn3c2)cc1", "logP": 5.2}
{"smiles": "c1ccc2nc(-c3ccc4ccccc4n3)ccc2c1", "logP": 4.31}
{"smiles": "COc1ccc2c(c1)N(C[C@H](C)CN(C)C)c1ccccc1S2", "logP": 4.68}
{"smiles": "CN1CCc2cccc3c2[C@H]1Cc1ccc(O)c(O)c1-3", "logP": 2.3}
{"smiles": "CCn1cnc2c(NC(C)=O)ncnc21", "logP": -0.41}
{"smiles": "Brc1c(Br)c(Br)c(Br)c(Br)c1Br", "logP": 6.07}
{"smiles": "O=[N+]([O-])c1ccc(C=NO)o1", "logP": 0.3}
{"smiles": "CC(=O)Nc1cn[nH]c1", "logP": -0.38}
{"smiles": "O=C(O)C(c1ccccc1)n1cccc1", "note": "(centres undefined)", "logP": 1.57}
{"smiles": "c1ccc(Sc2ccccc2)cc1", "logP": 4.45}
{"smiles": "CCCCCCOC(=O)n1cnc(CC(NC(=O)C2CCC(=O)N2)C(=O)N2CCCC2C(N)=O)c1", "note": "(centres undefined)", "logP": 0.71}
{"smiles": "O=C(NC(CO)C(O)c1ccc(Br)cc1)C(Cl)Cl", "note": "(centres undefined)", "logP": 1.87}
{"smiles": "CCOP(=O)(OCC)Oc1ccccc1", "logP": 1.64}
{"smiles": "O=I(=O)c1ccccc1", "logP": -1.33}
{"smiles": "CC(C)N(N=Nc1ccc(C(N)=O)cc1)C(C)C", "logP": 3}
{"smiles": "CNc1nc(-c2ccccc2)c2ccccc2n1", "logP": 3.58}
{"smiles": "O=[N+]([O-])c1cccc2ccccc12", "logP": 3.19}
{"smiles": "COC(=O)Cn1cnc([N+](=O)[O-])n1", "logP": -0.38}
{"smiles": "c1ccc2c(c1)OCO2", "logP": 2.08}
{"smiles": "O=C1CCCCCCCCCCC1", "logP": 4.1}
{"smiles": "CNC(=O)Oc1cccc(C=O)c1", "logP": 0.92}
{"smiles": "COc1ccccc1OCC(=O)NNC(C)C", "logP": 1.11}
{"smiles": "OC[C@@H](O)[C@@H](O)CO", "logP": -2.29}
{"smiles": "NCCCc1ccccc1", "logP": 1.83}
{"smiles": "CCCC(=O)O[C@]1(C(=O)CCl)[C@@H](C)C[C@H]2[C@@H]3CCC4=CC(=O)C=C[C@]4(C)[C@@]3(F)C(=O)C[C@@]21C", "logP": 3.76}
{"smiles": "NS(=O)(=O)c1nc2ccc(Cl)cc2s1", "logP": 2.1}
{"smiles": "O=[N+]([O-])C=Cc1ccoc1", "logP": 1.41}
